Laboratory results from US20090182020A1, “SUBSTITUTED BIS(HETERO)AROMATIC N--ETHYLPROPIOLAMIDES AND USE THEREOF FOR PRODUCTION OF MEDICAMENTS” (GRUNENTHAL GMBH, priority 2005, published 2009).

Biological target: T1, mGluR5 receptor (pig) (Sus scrofa, UniProt I3LUI7)
T1 construct: 450 μg protein from brain homogenate is incubated with 5 nM ^3[H]-MPEP; from tissue; host or cells: pig brain halves without medulla, cerebellum and pons
Assay: [3H]-MPEP bond in the mGluR5 receptor bond assay (pig brain homogenate)
Assay type: binding
Details: 5 nM [3H]-MPEP; pig brain homogenate
Experimental: I. Method for Determining the Inhibition of the [^3H]-MPEP Bond in the mGluR5 Receptor Bond Assay
Pig brain homogenate is produced by homogenisation (Polytron PT 3000, Kinematica AG, 10,000 rpm for 90 seconds) of pig brain halves without medulla, cerebellum and pons in buffer pH 8.0 (30 mM Hepes, Sigma, order no. H3375+1 tablet complete to 100 ml, Roche Diagnostics, order no. 1836145) in the ratio 1:20 (brain weight/volume) and differential centrifugation at 900×g and 40,000×g. In each case, 450 μg protein from brain homogenate is incubated with 5 nM ^3[H]-MPEP (Tocris, order no. […]
Thereafter, the batches are filtered with the help of a Brandel Cell Harvester (Brandel, TYP Robotic 9600) on unifilter plates with glass fibre filter mats (Perkin Elmer, order no. 6005177) and subsequently washed with buffer (as above) 3 times with in each case 250 μl per sample. The filter plates are subsequently dried for 60 min at 55° C. 30 μL Ultima Gold™ scintillator (Packard BioScience, order no. 6013159) is subsequently added per well and the samples are measured after 3 hours on the β-counter (Mikrobeta, Perkin Elmer). The unspecific bond is determined by addition of 10 μM MPEP (Tocris, order no. 1212).

T1 sequence (I3LUI7 19-1212): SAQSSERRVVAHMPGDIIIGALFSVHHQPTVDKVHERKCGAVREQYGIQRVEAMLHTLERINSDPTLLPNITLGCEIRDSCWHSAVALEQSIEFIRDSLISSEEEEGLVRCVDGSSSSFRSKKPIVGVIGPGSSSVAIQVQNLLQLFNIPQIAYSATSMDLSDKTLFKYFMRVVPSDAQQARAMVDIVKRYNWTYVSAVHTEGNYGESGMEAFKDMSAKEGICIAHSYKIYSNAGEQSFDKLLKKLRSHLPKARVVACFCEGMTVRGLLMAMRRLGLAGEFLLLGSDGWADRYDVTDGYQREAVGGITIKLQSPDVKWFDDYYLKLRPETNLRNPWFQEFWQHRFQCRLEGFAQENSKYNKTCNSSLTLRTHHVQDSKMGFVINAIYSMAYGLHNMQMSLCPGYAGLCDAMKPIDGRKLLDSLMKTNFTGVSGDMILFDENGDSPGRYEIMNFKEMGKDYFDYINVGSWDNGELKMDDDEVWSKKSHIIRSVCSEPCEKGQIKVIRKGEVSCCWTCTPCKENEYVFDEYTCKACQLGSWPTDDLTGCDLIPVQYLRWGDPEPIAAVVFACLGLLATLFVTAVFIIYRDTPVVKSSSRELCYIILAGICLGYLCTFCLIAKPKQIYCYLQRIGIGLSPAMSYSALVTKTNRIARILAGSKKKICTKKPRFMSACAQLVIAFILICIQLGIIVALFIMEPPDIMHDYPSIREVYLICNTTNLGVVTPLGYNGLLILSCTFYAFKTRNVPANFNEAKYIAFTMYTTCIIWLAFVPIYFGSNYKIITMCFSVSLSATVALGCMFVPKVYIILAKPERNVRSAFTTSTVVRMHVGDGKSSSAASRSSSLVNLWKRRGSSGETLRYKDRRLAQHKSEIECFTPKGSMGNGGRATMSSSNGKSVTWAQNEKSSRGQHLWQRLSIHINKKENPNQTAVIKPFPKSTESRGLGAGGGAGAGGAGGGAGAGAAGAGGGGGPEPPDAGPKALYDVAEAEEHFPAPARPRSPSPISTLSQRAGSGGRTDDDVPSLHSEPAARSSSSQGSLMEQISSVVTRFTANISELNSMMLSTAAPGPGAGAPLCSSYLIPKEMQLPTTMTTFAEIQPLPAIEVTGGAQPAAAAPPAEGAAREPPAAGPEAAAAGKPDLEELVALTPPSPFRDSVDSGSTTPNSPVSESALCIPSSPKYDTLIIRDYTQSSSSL

IC50 [nM]	Compound
450	O=C(C#Cc1cccc(Cl)c1)NCCc1cccc(C(F)(F)F)c1 [Example 219, 3-(3-chlorophenyl)-N-(3-(trifluoromethyl)phenethyl)propiolamide]
44	CCN(CCc1ccccc1)C(=O)C#Cc1cccc(Cl)c1 [Example 237, 3-(3-chlorophenyl)-N-ethyl-N-phenethylpropiolamide]
51	CN(CCn1cccn1)C(=O)C#Cc1cccc(Cl)c1 [Example 234, N-(2-(1H-pyrazol-1-yl)ethyl)-3-(3-chlorophenyl)-N-methylpropiolamide]
44	O=C(C#Cc1cccc(Cl)c1)NCCc1ccccc1 [Example 2, 3-(3-chlorophenyl)-N-phenethylpropiolamide]
140	O=C(C#Cc1cccc(Cl)c1)NCCn1cccn1 [Example 231, N-(2-(1H-pyrazol-1-yl)ethyl)-3-(3-chlorophenyl)propiolamide]
13	Cc1ccccc1CCNC(=O)C#Cc1cccc(Cl)c1 [Example 223, 3-(3-chlorophenyl)-N-(2-methylphenethyl)propiolamide]
9	CN(CCc1ccc(F)cc1)C(=O)C#Cc1cccc(Cl)c1 [Example 220, 3-(3-chlorophenyl)-N-(4-fluorophenethyl)-N-methylpropiolamide]
12	O=C(C#Cc1cccc(Cl)c1)NCCc1cccc(F)c1 [Example 216, 3-(3-chlorophenyl)-N-(3-fluorophenethyl)propiolamide]
40	Cc1cccc(CCNC(=O)C#Cc2cccc(Cl)c2)c1 [Example 224, 3-(3-chlorophenyl)-N-(3-methylphenethyl)propiolamide]
31	CN(CCn1cccc1)C(=O)C#Cc1cccc(Cl)c1 [Example 233, N-(2-(1H-pyrrol-1-yl)ethyl)-3-(3-chlorophenyl)-N-methylpropiolamide]
33	O=C(C#Cc1cccc(Cl)c1)NCCc1ccccc1C(F)(F)F [Example 250, 3-(3-chlorophenyl)-N-(2-(trifluoromethyl)phenethyl)propiolamide]
140	CC(Cc1cccnc1)N(C)C(=O)C#Cc1cccc(Cl)c1 (centres unmarked) [Example 247, 3-(3-chlorophenyl)-N-methyl-N-(1-(pyridine-3-yl)propane-2-yl)propiolamide]
12	CN(CCc1cccnc1)C(=O)C#Cc1cccc(Cl)c1 [Example 243, 3-(3-chlorophenyl)-N-methyl-N-(2-(pyridine-3-yl)ethyl)propiolamide]
16	CN(CCc1ccccc1F)C(=O)C#Cc1cccc(Cl)c1 [Example 218, 3-(3-chlorophenyl)-N-(2-fluorophenethyl)-N-methylpropiolamide]

Same assay, conditions: 10 μM test compound; 5 nM [3H]-MPEP; 450 μg protein pig brain homogenate; 60 min room temperature

Compound	inhibition at 10 µM [%]
O=C(C#Cc1ccccc1)NCCc1cccc(Cl)c1 [Example 65, N-(3-chlorophenethyl)-3-phenylpropiolamide]	97
CN(CCc1ccccc1)C(=O)C#Cc1ccc(F)cc1F [Example 78, 3-(2,4-difluorophenyl)-N-methyl-N-phenethylpropiolamide]	69
O=C(C#Cc1ccc(F)cc1)NCCc1cccc(Cl)c1 [Example 89, N-(3-chlorophenethyl)-3-(4-fluorophenyl)propiolamide]	64
Cc1cccc(C#CC(=O)NCCc2ccccn2)c1 [Example 18, N-(2-(pyridine-2-yl)ethyl)-3-m-tolyl-propiolamide]	90
Cc1cccc(C#CC(=O)N(C)CCc2ccccc2)c1 [Example 46, N-methyl-N-phenethyl-3-m-tolylpropiolamide]	97
Cc1cc(C#CC(=O)N(C)CCc2ccccc2)ccc1F [Example 41, 3-(4-fluoro-3-methylphenyl)-N-methyl-N-phenethylpropiolamide]	92
COc1cccc(C#CC(=O)NCCc2ccccn2)c1 [Example 6, 3-(3-methoxyphenyl)-N-(2-(pyridine-2-yl)ethyl)propiolamide]	82
COc1cccc(C#CC(=O)NCCc2ccccc2)c1 [Example 81, 3-(3-methoxyphenyl)-N-phenethylpropiolamide]	79
O=C(C#Cc1ccc(F)cc1)NCCc1ccccn1 [Example 20, 3-(4-fluoro-phenyl)-N-(2-(pyridine-2-yl)ethyl)propiolamide]	54
Cc1cc(C#CC(=O)NCCc2cccc(Cl)c2)ccc1F [Example 62, N-(3-chlorophenethyl)-3-(4-fluoro-3-methylphenyl)propiolamide]	75
Cc1cc(C#CC(=O)NCCc2ccccc2)ccc1F [Example 82, 3-(4-fluoro-3-methylphenyl)-N-phenethylpropiolamide]	69
COc1cccc(C#CC(=O)NCCc2cccc(Cl)c2)c1 [Example 58, N-(3-chlorophenethyl)-3-(3-methoxyphenyl)propiolamide]	91
Cc1ccc(CCNC(=O)C#Cc2cccs2)cc1 [Example 95, N-(4-methylphenethyl)-3-(thiophene-2-yl)propiolamide]	75
Cc1ccc(CCNC(=O)C#Cc2cccc(C)c2)cc1 [Example 70, N-(4-methylphenethyl)-3-m-tolylpropiolamide]	89
Cc1cccc(C#CC(=O)NCCc2cccc(Cl)c2)c1 [Example 69, N-(3-chlorophenethyl)-3-m-tolylpropiolamide]	107
COc1cccc(C#CC(=O)NCCc2c[nH]c3ccccc23)c1 [Example 87, N-(2-(1H-indol-3-yl)ethyl)-3-(3-methoxyphenyl)propiolamide]	42
CN(CCc1ccccc1)C(=O)C#Cc1ccccc1F [Example 42, 3-(2-fluorophenyl)-N-methyl-N-phenethylpropiolamide]	90
O=C(C#Cc1cccs1)NCCc1cccc(Cl)c1 [Example 94, N-(3-chlorophenethyl)-3-(thiophene-2-yl)propiolamide]	84
COc1cccc(C#CC(=O)NCCc2ccc(C)cc2)c1 [Example 59, 3-(3-methoxyphenyl)-N-(4-methylphenethyl)propiolamide]	57
Cc1cccc(C#CC(=O)NCC(c2ccccc2)c2ccccc2)c1 [Example 71, N-(2,2-diphenylethyl)-3-m-tolylpropiolamide]	57
O=C(C#Cc1ccc(F)cc1)NCCc1ccccc1 [Example 72, 3-(4-fluorophenyl)-N-phenethylpropiolamide]	57
O=C(C#Cc1ccccc1)NCCc1ccccc1 [Example 83, N-phenethyl-3-phenylpropiolamide]	91
Cc1ccc(CCNC(=O)C#Cc2ccccc2)cc1 [Example 66, N-(4-methylphenethyl)-3-phenylpropiolamide]	64
Cc1cccc(C#CC(=O)NCCc2c[nH]c3ccccc23)c1 [Example 57, N-(2-(1H-indol-3-yl)ethyl)-3-m-tolylpropiolamide]	91
CN(CCc1ccccc1)C(=O)C#Cc1cccc(C(F)(F)F)c1 [Example 49, N-methyl-N-phenethyl-3-(3-(trifluoromethyl)phenyl)propiolamide]	108
O=C(C#Cc1cccs1)NCCc1ccccn1 [Example 25, N-(2-(pyridine-2-yl)ethyl)-3-thiophene-2-yl-propiolamide]	68
O=C(C#Cc1cccs1)NCCc1cccs1 [Example 73, 3-(thiophene-2-yl)-N-(2-(thiophene-2-yl)ethyl)propiolamide]	76

The remaining lines, values ahead:

inhibition at 10 µM [%]	Compound
89	O=C(C#Cc1ccccc1)NCCc1ccc(Cl)c(Cl)c1 [Example 101, N-(3,4-dichlorophenethyl)-3-phenylpropiolamide]
67	O=C(C#Cc1ccccc1F)NCCc1cccs1 [Example 118, 3-(2-fluorophenyl)-N-(2-(thiophene-2-yl)ethyl)propiolamide]
85	COc1ccccc1CCNC(=O)C#Cc1cccs1 [Example 189, N-(2-methoxyphenethyl)-3-(thiophene-2-yl)propiolamide]
105	Cc1cccc(C#CC(=O)NCCc2ccc(Cl)c(Cl)c2)c1 [Example 102, N-(3,4-dichlorophenethyl)-3-m-tolylpropiolamide]
53	O=C(C#Cc1ccc(F)cc1)NCCc1ccc(Cl)cc1 [Example 140, N-(4-chlorophenethyl)-3-(4-fluorophenyl)propiolamide]
81	COc1ccccc1CCNC(=O)C#Cc1ccccc1F [Example 194, 3-(2-fluorophenyl)-N-(2-methoxyphenethyl)propiolamide]
97	COc1ccccc1CCNC(=O)C#Cc1cccc(C)c1 [Example 138, N-(2-methoxyphenethyl)-3-m-tolylpropiolamide]
91	Cc1cccc(C#CC(=O)NCCc2ccc(Cl)cc2)c1 [Example 139, N-(4-chlorophenethyl)-3-m-tolylpropiolamide]
57	Cc1ccc(CCNC(=O)C#Cc2ccccc2F)cc1 [Example 149, 3-(2-fluorophenyl)-N-(4-methylphenethyl)propiolamide]
